Test results published in patent US20230021483A1, “[…] […] METHOD AND CLASSIFICATION OF PHARMACEUTICAL COMPONENTS BY USING TRANSCRIPTOMES” (National Institutes of Biomedical Innovation, Health and …, priority 2016, published 2023).

Experiments:
Format in all cases: in vivo, C57BL/6 mice
[1] = test system: inguinal lymph nodes (LN); test: Whole organ transcriptome (GeneChip microarray) of draining inguinal lymph nodes 6 h after adjuvant administration: sDEGs, gene modules, hierarchical clustering; on adjuvant group (cluster) in LN: key: G1 (interferon signaling); G2 (metabolism of lipids and lipoproteins); G3 (response to stress); G4 (response to wounding); G5 (phosphate-containing compound metabolic process); G6 (phagosome)
LV, SP and LNs = test: Whole organ transcriptome across organs (adjuvant gene space): gene responses and adjuvant grouping; settings: hierarchical clustering; LV, SP and/or LNs
[2] = test system: preferentially upregulated genes in LV, SP, LN; test: Z-score-based differential gene expression analysis (adjuvant group- or adjuvant-associated genes, 40 module mapping, TargetMine annotation); set-up: key to z sum, 1458589_at ---: sum of the per-gene fold-change z-scores of the triplicate samples; settings: ID
In short: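 Gene groups for each organ were built from combined z-score cutoffs across adjuvants, ranging from z>1 to z>3. Scores came from fold changes standardized per gene over the whole organ data set, with the three replicate z-scores added per adjuvant; sums above 3 marked preferential expression.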

Nc1nc2c(ncn2[C@@H]2O[C@@H]3COP(=O)(O)O[C@H]4[C@@H](O)[C@H](n5cnc6c(N)ncnc65)O[C@@H]4COP(=O)(O)O[C@@H]2[C@@H]3O)c(=O)[nH]1 [cGAMP, Cyclic [G(2′,5′)pA(3′,5′)p]]
module M40^LN (immune system process; dendritic cells, macrophages, neutrophils, stromal cells) ([1]; LN, 6 h): strongly induced
adjuvant group (cluster) in LN ([1]; hierarchical clustering, lymph node): G1
Number of gene probes with statistically significant changes (sDEGs), LN, Down ([1]; i.d. administration, lymph node, fold change <0.667, p<0.01, customized PA call=1, 6 h after adjuvant): 255
Number of gene probes with statistically significant changes (sDEGs), LN, Up ([1]; i.d. administration, lymph node, fold change >1.5, p<0.01, customized PA call=1, 6 h after adjuvant): 1135
adjuvant group (cluster) within the adjuvant gene space (LV, SP and LNs): group (G) 1
z sum, 1428027_at LOC100653389 ([2]; LN, Modules 26): −1.72
z sum, 1419721_at Niacr1 ([2]; LN, Modules 27): −2.05
z sum, 1418424_at Tnfaip6 ([2]; LN, Modules 29): −2.05
z sum, 1419534_at Olr1 ([2]; LN, Modules 29): −2.35
z sum, 1421457_a_at Samsn1 ([2]; LN, Modules 29): −1.88
z sum, 1422305_at Ifnb1 ([2]; LN, Modules 29): −1.97
z sum, 1423028_at Ifna2 ([2]; LN, Modules 29): −1.92
z sum, 1425837_a_at Ccrn4l ([2]; LN, Modules 29): −2.11
z sum, 1436387_at C330006P03Rik///Homer1 ([2]; LN, Modules 29): −1.73
z sum, 1439349_at Sbno2 ([2]; LN, Modules 29): −2.1
z sum, 1444010_at Eif4e ([2]; LN, Modules 29): −1.99
z sum, 1448325_at Ppp1r15a ([2]; LN, Modules 29): −2.32
z sum, 1449311_at Bach1 ([2]; LN, Modules 29): −1.95
z sum, 1450297_at Il6 ([2]; LN, Modules 29): −2.07
z sum, 1455197_at Rnd1 ([2]; LN, Modules 29): −2.12
z sum, 1455899_x_at Socs3 ([2]; LN, Modules 29): −2.14
z sum, 1417252_at Ptgs2 ([2]; LN, Modules 34): −2.41
z sum, 1417263_at Ptgs2 ([2]; LN, Modules 34): −2.18
z sum, 1419132_at Tfr2 ([2]; LN, Modules 34): −1.86
z sum, 1421473_at Il1a ([2]; LN, Modules 34): −2.25
z sum, 1439981_at Tespa1 ([2]; LN, Modules 35): −2.15
z sum, 1441843_s_at 5230400M03Rik ([2]; LN, Modules 35): −1.71
z sum, 1442556_at --- ([2]; LN, Modules 35): −1.95
z sum, 1443414_at C78513 ([2]; LN, Modules 35): −1.91
z sum, 1444598_at --- ([2]; LN, Modules 35): −1.93
z sum, 1445534_at --- ([2]; LN, Modules 35): −1.93
z sum, 1446245_at --- ([2]; LN, Modules 35): −1.58
z sum, 1457944_at --- ([2]; LN, Modules 35): −1.78
z sum, 1458376_at B930025B16Rik ([2]; LN, Modules 35): −1.85
z sum, 1459144_at --- ([2]; LN, Modules 35): −1.91
z sum, 1425687_at Cflar ([2]; LN, Modules 36): −2.21
z sum, 1427736_a_at Ccrl2 ([2]; LN, Modules 36): −1.74
z sum, 1449169_at Has2 ([2]; LN, Modules 36): −1.67
z sum, 1453636_at Pcgf5 ([2]; LN, Modules 36): −1.86
z sum, 1457888_at --- ([2]; LN, Modules 36): −1.91
z sum, 1419508_at Ripk1 ([2]; LN, Modules 37): −1.9
z sum, 1421578_at Ccl4 ([2]; LN, Modules 37): −2.14
z sum, 1421679_a_at Cdkn1a ([2]; LN, Modules 37): −1.99
z sum, 1424638_at Cdkn1a ([2]; LN, Modules 37): −2.22
z sum, 1433508_at Klf6 ([2]; LN, Modules 37): −2.41
z sum, 1434350_at Csrnp1 ([2]; LN, Modules 37): −1.97
z sum, 1439680_at Tnfsf10 ([2]; LN, Modules 37): −1.65
z sum, 1448724_at Cish ([2]; LN, Modules 37): −2.38
z sum, 1451340_at Arid5a ([2]; LN, Modules 37): −1.67
z sum, 1453851_a_at Gadd45g ([2]; LN, Modules 37): −1.96
z sum, 1457404_at Nfkbiz ([2]; LN, Modules 37): −1.92
z sum, 1458589_at --- ([2]; LN, Modules 37): −2.36
z sum, 1422054_a_at 5kil ([2]; LN, Modules 40): −2.23
z sum, 1428735_at Cd69 ([2]; LN, Modules 40): −1.52
Adar 1425405_a_at (Group G1, Modules 20) ([2]; LV, sample x1): 2.95
Adar 1434268_at (Group G1, Modules 20) ([2]; LV, sample x1): 2.22
Ddx58 1436562_at (Group G1, Modules 20) ([2]; LV, sample x1): 2.04
Ddx58 1456890_at (Group G1, Modules 20) ([2]; LV, sample x1): 2.26
Eif2ak2 1422005_at (Group G1, Modules 20) ([2]; LV, sample x1): 3.11
G3bp2 1421323_a_at (Group G1, Modules 20) ([2]; LV, sample x1): 3.19
Gm9706///Isg15 1431591_s_at (Group G1, Modules 20) ([2]; LV, sample x1): 2.13
H2-T10///H2-T22///H2-T9 1449875_s_at (Group G1, Modules 20) ([2]; LV, sample x1): 2.29
Ifih1 1426276_at (Group G1, Modules 20) ([2]; LV, sample x1): 1.73
Ifit1 1450783_at (Group G1, Modules 20) ([2]; LV, sample x1): 2.75
Ifit3 1449025_at (Group G1, Modules 20) ([2]; LV, sample x1): 2.13
Irf7 1417244_a_at (Group G1, Modules 20) ([2]; LV, sample x1): 1.6
Irgm1 1418825_at (Group G1, Modules 20) ([2]; LV, sample x1): 2.25
Mndal 1426906_at (Group G1, Modules 20) ([2]; LV, sample x1): 2.08
Pml 1448757_at (Group G1, Modules 20) ([2]; LV, sample x1): 2.13
